Biological target: T1, P2X7 receptor (Homo sapiens, UniProt Q99572)
T1 construct: host or cells: SH-SY5Y
T1 sequence (Q99572 1-595): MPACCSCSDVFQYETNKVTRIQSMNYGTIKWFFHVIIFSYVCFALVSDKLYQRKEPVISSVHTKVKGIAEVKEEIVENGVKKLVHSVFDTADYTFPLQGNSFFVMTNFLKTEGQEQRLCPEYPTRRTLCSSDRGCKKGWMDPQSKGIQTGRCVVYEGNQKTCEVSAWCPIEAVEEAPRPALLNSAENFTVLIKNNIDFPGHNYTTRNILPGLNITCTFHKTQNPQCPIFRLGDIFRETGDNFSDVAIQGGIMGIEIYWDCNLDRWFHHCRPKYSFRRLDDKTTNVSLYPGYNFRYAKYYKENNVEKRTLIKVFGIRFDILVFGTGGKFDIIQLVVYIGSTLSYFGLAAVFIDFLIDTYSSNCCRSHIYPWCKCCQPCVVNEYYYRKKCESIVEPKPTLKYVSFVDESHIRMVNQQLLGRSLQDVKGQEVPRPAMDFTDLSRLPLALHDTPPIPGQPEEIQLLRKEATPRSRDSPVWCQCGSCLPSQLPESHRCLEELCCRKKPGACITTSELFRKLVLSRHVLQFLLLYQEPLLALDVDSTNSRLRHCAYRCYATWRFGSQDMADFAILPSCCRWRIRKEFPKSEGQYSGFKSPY
Experiment: High throughput P2X7 calcium mobilization assay (Example 4A)
Assay type: cell-based
Conditions: SH-SY5Y cells, 50% decrease in fluorescence response of cells exposed to 80 μM BzATP
Outline: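 Calcium mobilization read by FLIPR as peak fluorescence over 2 min after adding BzATP to a final 80 μM (about EC50). Beforehand, Fluo-4 AM-loaded SH-SY5Y cells sat 1 h at room temperature with compound at 1–2500 nM in pH 7.4 sucrose/HEPES buffer; signal minus no-agonist wells.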

[1] = flag after the MS data in Examples 1-2

| Structure (SMILES) | IC50 (Table I) [nM] | IC50 [1] [nM] |
| --- | --- | --- |
| CC(C)CC(CNC(=O)c1sc(-c2cccnc2)nc1C(F)(F)F)c1ccc(C(F)(F)F)cc1 (stereo not drawn) [Compound 165, N-{4-methyl-2-[4-(trifluoromethyl)phenyl]pentyl}-2-pyridin-3-yl-4-(trifluoromethyl)-1,3-thiazole-5-carboxamide] | ≤ 2000 |  |
| COc1ccc(C2(CNC(=O)c3cn(-c4ncc(F)c(N)n4)nc3C(F)(F)F)CCCCC2)cc1 [Compound 168, 1-(4-amino-5-fluoropyrimidin-2-yl)-N-{[1-(4-methoxyphenyl)cyclohexyl]methyl}-3-(trifluoromethyl)-1H-pyrazole-4-carboxamide] | ≤ 2000 |  |
| Cc1cnc(-n2cc(C(=O)NCC34CC5CC(CC(C5)C3)C4)c(C)n2)nc1C#N [1-(4-Cyano-5-methyl-pyrimidin-2-yl)-3-methyl-1H-pyrazole-4-carboxylic acid (adamantan-1-ylmethyl)-amide] |  | ≤ 2000 |
| O=C(NCC1(c2cccnc2)CCCCC1)c1cn(-c2ncc(F)cn2)nc1C(F)(F)F [Compound 152, 1-(5-fluoropyrimidin-2-yl)-N-[(1-pyridin-3-ylcyclohexyl)methyl]-3-(trifluoromethyl)-1H-pyrazole-4-carboxamide] | ≤ 2000 |  |
| Cc1nc(-c2cccnc2)sc1C(=O)NCC(CC(C)C)c1ccc(Cl)cc1 (stereo not drawn) [Compound 31, N-[2-(4-Chlorophenyl)-4-methylpentyl}-4-methyl-2-pyridin-3-yl-1,3-thiazole-5-carboxamide] |  | ≤ 2000 |
| Cc1cnc(-n2cc(C(=O)NCC34CC5CC(CC(C5)C3)C4)c(C)n2)nc1-c1ccccn1 [Compound 121, N-(adamantan-1-ylmethyl)-3-methyl-1-(5-methyl-4-pyridin-2-ylpyrimidin-2-yl)-1H-pyrazole-4-carboxamide] | ≤ 2000 |  |
| Nc1nc(-n2cc(C(=O)NCC3(N4CCOCC4)CCCCC3)c(C(F)(F)F)n2)ncc1F [Compound 144, 1-(4-amino-5-fluoropyrimidin-2-yl)-N-[(1-morpholin-4-ylcyclohexyl)methyl]-3-(trifluoromethyl)-1H-pyrazole-4-carboxamide] | ≤ 2000 |  |
| O=C(NCC12CC3CC(CC(C3)C1)C2)c1cn(-c2ncc(F)cn2)nc1C(F)(F)F [Compound 118, N-(adamantan-1-ylmethyl)-1-(5-fluoropyrimidin-2-yl)-3-(trifluoromethyl)-1H-pyrazole-4-carboxamide] | ≤ 2000 |  |
| CC(C)CC(CNC(=O)c1cn(-c2ncc(F)c(N)n2)nc1C(F)(F)F)c1ccc(Cl)cc1 (stereo not drawn) [Compound 140, 1-(4-amino-5-fluoropyrimidin-2-yl)-N-[2-(4-chlorophenyl)-4-methylpentyl]-3-(trifluoromethyl)-1H-pyrazole-4-carboxamide] | ≤ 2000 |  |
| CCCNC(=O)c1nc(-n2cc(C(=O)NCC34CC5CC(CC(C5)C3)C4)c(C)n2)ncc1C [Compound 108, 2-{4-[(adamantan-1-ylmethyl)carbamoyl]-3-methyl-1H-pyrazol-1-yl}-5-methyl-N-propylpyrimidine-4-carboxamide] | ≤ 2000 |  |
| CC(C)CC(CNC(=O)c1cn(-c2ncccn2)nc1Cl)c1ccc(C(F)(F)F)cc1 (stereo not drawn) [Compound 9, 3-Chloro-N-{4-methyl-2-[4-(trifluoromethyl)phenyl]pentyl}-1-pyrimidin-2-yl-1H-pyrazole-4-carboxamide] |  | ≤ 2000 |
| Cc1cnc(-n2cc(C(=O)NCC34CC5CC(CC(C5)C3)C4)c(C)n2)nc1N [Compound 45, N-(adamantan-1-ylmethyl)-1-(4-amino-5-methylpyrimidin-2-yl)-3-methyl-1H-pyrazole-4-carboxamide] | ≤ 2000 |  |
| CN(C)[C@@H]1CCN(c2nc(C(F)(F)F)c(C(=O)NCC3(c4cccnc4)CCCCC3)s2)C1 [Compound 27, 2-((R)-3-Dimethylamino-pyrrolidin-1-yl)-4-trifluoromethyl-thiazole-5-carboxylic acid (1-pyridin-3-yl-cyclohexylmethyl)-amide] |  | ≤ 2000 |
| Nc1nc(-n2cc(C(=O)NCC34CC5CC(CC(C5)C3)C4)c(C(F)(F)F)n2)ncc1F [Compound 1, N-(Adamantan-1-ylmethyl)-1-(4-amino-5-fluoropyrimidin-2-yl)-3-(trifluoromethyl)-1H-pyrazole-4-carboxamide] |  | ≤ 2000 |
| Cc1nc(-c2cccnc2)sc1C(=O)NCC1(c2ccc(C(F)(F)F)cc2)CCCCC1 [Compound 32, N-({1-[4-(trifluoromethyl)phenyl]cyclohexyl}methyl)-4-methyl-2-pyridin-3-yl-1-,3-thiazole-5-carboxamide] |  | ≤ 2000 |

Results, then the compound that gave them:

| IC50 (Table I) [nM] | IC50 [1] [nM] | Structure (SMILES) |
| --- | --- | --- |
| ≤ 2000 |  | CCc1nc(-c2ncccn2)sc1C(=O)NCC1(c2cccnc2)CCCCC1 [Compound 219, 4-ethyl-N-[(1-pyridin-3-ylcyclohexyl)methyl]-2-pyrimidin-2-yl-1,3-thiazole-5-carboxamide] |
| ≤ 2000 |  | CCc1nccnc1-n1cc(C(=O)NCC2(c3cccnc3)CCCCC2)c(C(F)(F)F)n1 [Compound 188, 1-(3-ethylpyrazin-2-yl)-N-[(1-pyridin-3-ylcyclohexyl)methyl]-3-(trifluoromethyl)-1H-pyrazole-4-carboxamide] |
| ≤ 2000 |  | O=C(NCC1(c2ccc(Cl)nc2)CCCCC1)c1sc(-c2ncccn2)nc1C(F)(F)F [Compound 291, N-{[1-(6-chloropyridin-3-yl)cyclohexyl]methyl}-2-pyrimidin-2-yl-4-(trifluoromethyl)-1,3-thiazole-5-carboxamide] |
| ≤ 2000 |  | Cc1nn(-c2cnccn2)cc1C(=O)NCC(CC(C)C)c1ccc(C(F)(F)F)cc1 (stereo not drawn) [Compound 174, 3-methyl-N-{4-methyl-2-[4-(trifluoromethyl)phenyl]pentyl}-1-pyrazin-2-yl-1H-pyrazole-4-carboxamide] |
| ≤ 2000 |  | O=C(NCC1(c2ccc(Cl)cc2)CCOCC1)c1cn(-c2ncccn2)nc1C(F)(F)F [Compound 197, N-{[4-(4-chlorophenyl)tetrahydro-2H-pyran-4-yl]methyl}-1-pyrimidin-2-yl-3-(trifluoromethyl)-1H-pyrazole-4-carboxamide] |
| ≤ 2000 |  | Nc1nc(-n2cc(C(=O)NCC(O)C34CC5CC(CC(C5)C3)C4)c(C(F)(F)F)n2)ncc1F (stereo not drawn) [Compound 169, N-(2-adamantan-1-yl-2-hydroxyethyl)-1-(4-amino-5-fluoropyrimidin-2-yl)-3-(trifluoromethyl)-1H-pyrazole-4-carboxamide] |
| ≤ 2000 |  | O=C(NCC1(c2cccnc2)CCCCC1)c1sc(N2CCNCC2)nc1C(F)(F)F [Compound 300, 2-piperazin-1-yl-N-[(1-pyridin-3-ylcyclohexyl)methyl]-4-(trifluoromethyl)-1,3-thiazole-5-carboxamide] |
| ≤ 2000 |  | COc1ccnc(-n2cc(C(=O)NCC3(c4cccnc4)CCCCC3)c(C(F)(F)F)n2)n1 [Compound 185, 1-(4-methoxypyrimidin-2-yl)-N-[(1-pyridin-3-ylcyclohexyl)methyl]-3-(trifluoromethyl)-1H-pyrazole-4-carboxamide] |
| ≤ 2000 |  | CCc1nc(-c2ncccn2)sc1C(=O)NCC(CC(C)C)c1ccc(C(F)(F)F)nc1 (stereo not drawn) [Compound 305, 4-ethyl-N-{4-methyl-2-[6-(trifluoromethyl)pyridin-3-yl]pentyl}-2-pyrimidin-2-yl-1,3-thiazole-5-carboxamide] |
| ≤ 2000 |  | CCc1nc(-c2ncccn2)sc1C(=O)NCC(c1ccc(C(F)(F)F)cc1)N(C)C(C)C (stereo not drawn) [Compound 315, 4-ethyl-N-{2-[isopropyl(methyl)amino]-2-[4-(trifluoromethyl)phenyl]ethyl}-2-pyrimidin-2-yl-1,3-thiazole-5-carboxamide] |
| ≤ 2000 |  | Cc1cnc(-n2cc(C(=O)NCC(CC(C)C)c3ccc(C(F)(F)F)cc3)c(C(F)(F)F)n2)nc1N (stereo not drawn) [Compound 171, 1-(4-amino-5-methylpyrimidin-2-yl)-N-{4-methyl-2-[4-(trifluoromethyl)phenyl]pentyl}-3-(trifluoromethyl)-1H-pyrazole-4-carboxamide] |
| ≤ 2000 |  | CC(C)CC(CNC(=O)c1cn(-c2ncccn2)nc1C(F)(F)F)c1cccnc1 (stereo not drawn) [Compound 203, N-(4-methyl-2-pyridin-3-ylpentyl)-1-pyrimidin-2-yl-3-(trifluoromethyl)-1H-pyrazole-4-carboxamide] |
